Only the 19 paired bases of each siRNA are shown; overhangs and chemistry are not given here.

This note sets out measurements from the OligoGym collection.

Data set [1] deals with LMNA. As to the kind of experiment: five studies, different assays. The conditions noted are these: siRNA.
For data set [2], the target named is PPIB. In words: five studies, different assays. The conditions noted are these: siRNA.
Note: test concentration or dose not given here.

Consider “sense GGAGAAGACUUAUUCUGCC / antisense GGCAGAAUAAGUCUUCUCC”, for which the target inhibition in data set [1] worked out at 95%.

For “sense GGUGGUGACGAUCUGGGCU / antisense AGCCCAGAUCGUCACCACC”, the target inhibition in data set [1] came to 92%.

Take “sense GGCAUCUGCCAGCGGCUCA / antisense UGAGCCGCUGGCAGAUGCC”: the target inhibition in data set [1] is 92%.

With “sense AUAAGAAGGAGCUGGAGAA / antisense UUCUCCAGCUCCUUCUUAU”, the target inhibition in data set [1] turned out to be 96%.

Turning to “sense GUUAUUUUCUACAGUGGUU / antisense AACCACUGUAGAAAAUAAC”, the target inhibition in data set [1] stood at 98%.

“sense CUGGAGAAGACUUAUUCUG / antisense CAGAAUAAGUCUUCUCCAG”: the target inhibition in data set [1] turned out to be 98%.

As for “sense GAGCUGGAGAAGACUUAUU / antisense AAUAAGUCUUCUCCAGCUC”, in data set [1], the target inhibition is 96%.

Regarding “sense GGAGGACCUGCAGGAGCUC / antisense GAGCUCCUGCAGGUCCUCC”, the target inhibition in data set [1] is 83%.

Take “sense GCUUCGAGACCUGGAGGAC / antisense GUCCUCCAGGUCUCGAAGC”: the target inhibition in data set [1] came out at 96%.

Consider “sense CAAGUCCAAUGAGGACCAG / antisense CUGGUCCUCAUUGGACUUG”, for which the target inhibition in data set [1] turned out to be 79%.

Turning to “sense GCUGGCCCUGGACAUGGAG / antisense CUCCAUGUCCAGGGCCAGC”, the target inhibition in data set [1] came out at 79%.

On to “sense CCAGGGGAGAUGGCACAGG / antisense CCUGUGCCAUCUCCCCUGG”, for which the target inhibition in data set [2] came out at 21.4%.

Take “sense GAGAAGACUUAUUCUGCCA / antisense UGGCAGAAUAAGUCUUCUC”: the target inhibition in data set [1] was determined as 97%.

Take “sense GUUCCAAAAACAGUGGAUA / antisense UAUCCACUGUUUUUGGAAC”: the target inhibition in data set [2] is 88.1%.

Take “sense CUGGACUUCCAGAAGAACA / antisense UGUUCUUCUGGAAGUCCAG”: the target inhibition in data set [1] is 98%.

As for “sense AUGAUCCAGGGCGGAGACU / antisense AGUCUCCGCCCUGGAUCAU”, the target inhibition in data set [2] came to 48.5%.

For the substance “sense AGGGGAGAUGGCACAGGAG / antisense CUCCUGUGCCAUCUCCCCU”, the target inhibition in data set [2] worked out at 76.1%.

With “sense AUCGUGUAAUCAAGGACUU / antisense AAGUCCUUGAUUACACGAU”, the target inhibition in data set [2] stood at 86.7%.

Take “sense CGGUGAGCGCUUCCCCGAU / antisense AUCGGGGAAGCGCUCACCG”: the target inhibition in data set [2] stood at 80.2%.

For the substance “sense GUGGCCUUAGCUACAGGAG / antisense CUCCUGUAGCUAAGGCCAC”, the target inhibition in data set [2] is 60.3%.

“sense CCGAUGAGAACUUCAAACU / antisense AGUUUGAAGUUCUCAUCGG”: the target inhibition in data set [2] is 85.1%.

“sense AGAGCAUCUACGGUGAGCG / antisense CGCUCACCGUAGAUGCUCU”: the target inhibition in data set [2] turned out to be 71.7%.

With “sense GGCCUUAGCUACAGGAGAG / antisense CUCUCCUGUAGCUAAGGCC”, in data set [2], the target inhibition worked out at 94.6%.

Regarding “sense CAGUGGAUAAUUUUGUGGC / antisense GCCACAAAAUUAUCCACUG”, in data set [2], the target inhibition was found to be 39.7%.

Take “sense CACCAGGGGAGAUGGCACA / antisense UGUGCCAUCUCCCCUGGUG”: the target inhibition in data set [2] came to 73.8%.

As to “sense UGUAAUCAAGGACUUCAUG / antisense CAUGAAGUCCUUGAUUACA”, in data set [2], the target inhibition worked out at 63.9%.

On to “sense AUCAAGGACUUCAUGAUCC / antisense GGAUCAUGAAGUCCUUGAU”, for which the target inhibition in data set [2] was determined as 66.4%.

As to “sense GGGAGAUGGCACAGGAGGA / antisense UCCUCCUGUGCCAUCUCCC”, the target inhibition in data set [2] was found to be 80.4%.

“sense AUUUGGCUACAAAAACAGC / antisense GCUGUUUUUGUAGCCAAAU”: the target inhibition in data set [2] was determined as 13.8%.

“sense AAUUUUGUGGCCUUAGCUA / antisense UAGCUAAGGCCACAAAAUU”: the target inhibition in data set [2] was 81.3%.

Consider “sense GCGCUUCCCCGAUGAGAAC / antisense GUUCUCAUCGGGGAAGCGC”, for which the target inhibition in data set [2] came out at 92.7%.

Turning to “sense AAGGAUUUGGCUACAAAAA / antisense UUUUUGUAGCCAAAUCCUU”, the target inhibition in data set [2] was 81.9%.

As to “sense GUGAGCGCUUCCCCGAUGA / antisense UCAUCGGGGAAGCGCUCAC”, the target inhibition in data set [2] amounted to 83.9%.

Consider “sense CUUCAUGAUCCAGGGCGGA / antisense UCCGCCCUGGAUCAUGAAG”, for which the target inhibition in data set [2] turned out to be 88.7%.

In the case of “sense UAAUCAAGGACUUCAUGAU / antisense AUCAUGAAGUCCUUGAUUA”, the target inhibition in data set [2] amounted to 87.9%.

Take “sense CAAAAACAGUGGAUAAUUU / antisense AAAUUAUCCACUGUUUUUG”: the target inhibition in data set [2] came to 90.2%.

In the case of “sense GCGGAGACUUCACCAGGGG / antisense CCCCUGGUGAAGUCUCCGC”, the target inhibition in data set [2] was determined as 76.6%.

As to “sense CUACAGGAGAGAAAGGAUU / antisense AAUCCUUUCUCUCCUGUAG”, the target inhibition in data set [2] was found to be 93.9%.

For the substance “sense GGCUACAAAAACAGCAAAU / antisense AUUUGCUGUUUUUGUAGCC”, the target inhibition in data set [2] was determined as 77.4%.

Take “sense CAAGGACUUCAUGAUCCAG / antisense CUGGAUCAUGAAGUCCUUG”: the target inhibition in data set [2] amounted to 74.4%.

As for “sense GAGGAAAGAGCAUCUACGG / antisense CCGUAGAUGCUCUUUCCUC”, the target inhibition in data set [2] was 58.4%.

Turning to “sense GAUGGCACAGGAGGAAAGA / antisense UCUUUCCUCCUGUGCCAUC”, the target inhibition in data set [2] amounted to 84.9%.

Turning to “sense AGCUACAGGAGAGAAAGGA / antisense UCCUUUCUCUCCUGUAGCU”, in data set [2], the target inhibition was found to be 75.8%.

Regarding “sense CAGGGCGGAGACUUCACCA / antisense UGGUGAAGUCUCCGCCCUG”, in data set [2], the target inhibition stood at 46.8%.

As for “sense AGGAGGAAAGAGCAUCUAC / antisense GUAGAUGCUCUUUCCUCCU”, the target inhibition in data set [2] was 58.9%.

As for “sense AGGAGAGAAAGGAUUUGGC / antisense GCCAAAUCCUUUCUCUCCU”, the target inhibition in data set [2] turned out to be 88.4%.

In the case of “sense GCACAGGAGGAAAGAGCAU / antisense AUGCUCUUUCCUCCUGUGC”, the target inhibition in data set [2] is 90.8%.

For “sense AGACUUCACCAGGGGAGAU / antisense AUCUCCCCUGGUGAAGUCU”, in data set [2], the target inhibition was determined as 87.6%.

As for “sense GAGCGCUUCCCCGAUGAGA / antisense UCUCAUCGGGGAAGCGCUC”, the target inhibition in data set [2] was determined as 86.5%.

With “sense AGCAUCUACGGUGAGCGCU / antisense AGCGCUCACCGUAGAUGCU”, in data set [2], the target inhibition was determined as 64.1%.

“sense UUCACCAGGGGAGAUGGCA / antisense UGCCAUCUCCCCUGGUGAA”: the target inhibition in data set [2] was 17.6%.

With “sense ACAGGAGAGAAAGGAUUUG / antisense CAAAUCCUUUCUCUCCUGU”, the target inhibition in data set [2] amounted to 84.9%.

“sense AGGACUUCAUGAUCCAGGG / antisense CCCUGGAUCAUGAAGUCCU”: in data set [2], the target inhibition was found to be 82.9%.

With “sense ACAGCAAAUUCCAUCGUGU / antisense ACACGAUGGAAUUUGCUGU”, in data set [2], the target inhibition came out at 91.9%.

Regarding “sense GUGGAUAAUUUUGUGGCCU / antisense AGGCCACAAAAUUAUCCAC”, the target inhibition in data set [2] was determined as 55%.

Regarding “sense CCAUCGUGUAAUCAAGGAC / antisense GUCCUUGAUUACACGAUGG”, the target inhibition in data set [2] worked out at 87.4%.

As to “sense UGGCACAGGAGGAAAGAGC / antisense GCUCUUUCCUCCUGUGCCA”, the target inhibition in data set [2] turned out to be 55.9%.

As to “sense UCCAAAAACAGUGGAUAAU / antisense AUUAUCCACUGUUUUUGGA”, in data set [2], the target inhibition amounted to 75.3%.

Take “sense UUCCCCGAUGAGAACUUCA / antisense UGAAGUUCUCAUCGGGGAA”: the target inhibition in data set [2] is 83.8%.

Regarding “sense AAAACAGUGGAUAAUUUUG / antisense CAAAAUUAUCCACUGUUUU”, the target inhibition in data set [2] worked out at 49.5%.

Consider “sense AAACAGCAAAUUCCAUCGU / antisense ACGAUGGAAUUUGCUGUUU”, for which the target inhibition in data set [2] stood at 7.3%.

Turning to “sense UUGGCUACAAAAACAGCAA / antisense UUGCUGUUUUUGUAGCCAA”, in data set [2], the target inhibition was 68%.

Consider “sense GGAAAGAGCAUCUACGGUG / antisense CACCGUAGAUGCUCUUUCC”, for which, in data set [2], the target inhibition was determined as 93.3%.

On to “sense GGAUAAUUUUGUGGCCUUA / antisense UAAGGCCACAAAAUUAUCC”, for which, in data set [2], the target inhibition amounted to 83.9%.

In the case of “sense GAUCCAGGGCGGAGACUUC / antisense GAAGUCUCCGCCCUGGAUC”, the target inhibition in data set [2] is 92.7%.

Turning to “sense ACAAAAACAGCAAAUUCCA / antisense UGGAAUUUGCUGUUUUUGU”, the target inhibition in data set [2] worked out at 78.5%.

As for “sense UUUUGUGGCCUUAGCUACA / antisense UGUAGCUAAGGCCACAAAA”, the target inhibition in data set [2] was 52%.

Turning to “sense UACGGUGAGCGCUUCCCCG / antisense CGGGGAAGCGCUCACCGUA”, the target inhibition in data set [2] is -9.9%.

Turning to “sense GAGAGAAAGGAUUUGGCUA / antisense UAGCCAAAUCCUUUCUCUC”, in data set [2], the target inhibition came to 93.4%.

Turning to “sense UGAGAACUUCAAACUGAAG / antisense CUUCAGUUUGAAGUUCUCA”, in data set [2], the target inhibition was found to be 41.7%.

Regarding “sense GACUUCAUGAUCCAGGGCG / antisense CGCCCUGGAUCAUGAAGUC”, in data set [2], the target inhibition was 51.2%.

Consider “sense GGAGACUUCACCAGGGGAG / antisense CUCCCCUGGUGAAGUCUCC”, for which the target inhibition in data set [2] was 80.9%.

Consider “sense GAGAUGGCACAGGAGGAAA / antisense UUUCCUCCUGUGCCAUCUC”, for which the target inhibition in data set [2] came to 70.5%.

Take “sense ACAGGAGGAAAGAGCAUCU / antisense AGAUGCUCUUUCCUCCUGU”: in data set [2], the target inhibition stood at 74.5%.

“sense CGUGUAAUCAAGGACUUCA / antisense UGAAGUCCUUGAUUACACG”: in data set [2], the target inhibition is 88.8%.

Turning to “sense GAAAGGAUUUGGCUACAAA / antisense UUUGUAGCCAAAUCCUUUC”, the target inhibition in data set [2] is 94.2%.

On to “sense GCUUCCCCGAUGAGAACUU / antisense AAGUUCUCAUCGGGGAAGC”, for which the target inhibition in data set [2] amounted to 67.8%.

“sense GGAUUUGGCUACAAAAACA / antisense UGUUUUUGUAGCCAAAUCC”: the target inhibition in data set [2] was 83.5%.

For the substance “sense AACUUCAAACUGAAGCACU / antisense AGUGCUUCAGUUUGAAGUU”, the target inhibition in data set [2] was 69.2%.

On to “sense CAAAUUCCAUCGUGUAAUC / antisense GAUUACACGAUGGAAUUUG”, for which the target inhibition in data set [2] came out at 92.3%.
